Source: patent US12162863B2, “Modulators of stimulator of interferon genes (STING)” (RYVU THERAPEUTICS S.A., priority 2018, dated 2024)

Legend:
human STING = human STING (Homo sapiens, UniProt Q86WV6); experiment: Fluorescence Thermal Shift assay; type: binding; conditions: 50 μM compound; STING 0.1 mg/ml; 20 minutes preincubation; read-out: [hSTING] FTS, ΔTm [° C.] for 50 μM
Protocol: Fluorescence Thermal Shift Assay Compounds of the present invention were tested for binding to human STING in Fluorescence Thermal Shift assay. STING was preincubated with the compounds for 20 minutes in 50 mM Hepes, 150 mM NaCl, pH 7.5 in 16 μl volume, following by adding 4 μl of SyproOrange dye dilution (ThermoFisher, cat no. S-6651). Final STING concentration was 0.1 mg/ml. Thermal unfolding was performed in Real-Time PCR QuantStudio 6 Flex System (Applied Biosystems), from 25 to 99° C., with continuous ramp mode and ramp rate 0.033° C./s. The data were analyzed using Protein Thermal Shift Software (ThermoFisher). […] For example, ΔTm [° C.] of FTS assay for following examples are: […]

[1] = system: interferon regulatory factor (IRF) pathway in THP-1 dual cells; experiment: THP-1 Dual Reporter Assay, IRF pathway (luciferase reporter); type: cell-based; conditions: Homo sapiens, THP1-Dual, 18 h of stimulation, luminescence
Protocol: (§1) THP-1 Dual Reporter Assay
(§2) Compounds of the present invention were tested for their activity using THP-1 dual cells (Invivogen, cat no. thpd-nfis) allowing for simultaneous study of NF-κB pathway and the interferon regulatory factor (IRF) pathway. THP-1 dual cells contain luciferase reporter gene under the control of an ISG54 (interferon-stimulated gene) minimal promoter in conjunction with five interferon-stimulated response elements and a secreted embryonic alkaline phosphatase reporter gene under the control an IFN (interferon)-β minimal promoter fused to five copies of the NF-κB consensus transcriptional response element with three copies of the c-Rel binding site. Following 18 h of stimulation with STING agonist, medium was collected and transferred onto fresh cell culture plate. To verify activity of the IRF pathway, luminescence activity was measured with standard laboratory plate reader immediately after addition 10 μl of the medium to 50 μl of luminescence reagent (Invivogen, cat. No. rep-qlc2). To verify activity of NF-κB pathway, 20 μl of the medium was mixed with 80 μl of a detection medium (Invivogen, cat. No. rep-qb2) and incubated for 2 hours at 37° C. in a humidified atmosphere containing 5% CO2. Next, absorbance at 630 nm was recorded using standard laboratory plate reader.

[2] = system: NF-κB pathway in THP-1 dual cells; experiment: THP-1 Dual Reporter Assay, NF-κB pathway (SEAP reporter); type: cell-based; conditions: Homo sapiens, THP1-Dual, 18 h of stimulation, absorbance at 630 nm, read-out: THP1 Dual EC50 (μM) NFkB
Protocol: as §1, §2

Sequence of human STING (Q86WV6 whole entry H232R): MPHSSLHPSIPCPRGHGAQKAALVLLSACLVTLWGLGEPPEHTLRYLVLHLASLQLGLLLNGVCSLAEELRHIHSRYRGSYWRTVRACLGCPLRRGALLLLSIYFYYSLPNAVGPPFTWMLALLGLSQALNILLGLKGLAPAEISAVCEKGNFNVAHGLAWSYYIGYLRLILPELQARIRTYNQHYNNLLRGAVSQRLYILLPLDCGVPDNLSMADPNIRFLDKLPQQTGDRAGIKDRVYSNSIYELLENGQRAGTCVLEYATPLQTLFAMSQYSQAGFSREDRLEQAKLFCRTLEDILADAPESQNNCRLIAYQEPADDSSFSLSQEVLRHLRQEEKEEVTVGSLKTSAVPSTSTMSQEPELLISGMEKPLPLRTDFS

SMILES | ΔTm at 50 µM (human STING) | EC50 [1] | EC50 [2]
Cc1oc2cc(N3CCOCC3)c(F)cc2c(=O)c1CN(CCCc1cccnc1)Cc1ccncc1 [Example 70, 6-fluoro-2-methyl-7-(morpholin-4-yl)-3-({[3-(pyridin-3-yl)propyl][(pyridin-4-yl)methyl]amino}methyl)-4H-chromen-4-one] | > 2.5 °C | ≤ 10 µM | ≤ 10 µM
O=c1c(CN(CCCn2ccnc2)Cc2ccncc2)coc2c(F)cc(F)cc12 [Example 45, 6,8-difluoro-3-({[3-(1H-imidazol-1-yl)propyl][(pyridin-4-yl)methyl]amino}methyl)-4H chromen-4-one] | < 2.5 °C | 10 to 20 µM | ≥ 20 µM
Cc1oc2cc(Br)c(F)cc2c(=O)c1CN(CCCc1cccnc1)Cc1ccncc1 [Example 63, 7-bromo-6-fluoro-2-methyl-3-({[3-(pyridin-3-yl)propyl][(pyridin-4-yl)methyl]amino}methyl)-4H-chromen-4-one] | > 2.5 °C | ≤ 10 µM | ≤ 10 µM
O=c1c(CN(CCCn2ccccc2=O)Cc2ccncc2)coc2c1ccc1ccccc12 [Example 59, 1-{3-[({4-oxo-4H-benzo[h]chromen-3-yl}methyl)[(pyridin-4-yl)methyl]amino]propyl}-1,2-dihydropyridin-2-one] | < 2.5 °C | ≤ 10 µM | ≤ 10 µM
O=c1c(CN(CCCc2ccccn2)Cc2ccncc2)coc2ccccc12 [Example 6, 3-({[3-(pyridin-2-yl)propyl][(pyridin-4-yl)methyl]amino}methyl)-4H-chromen-4-one] | < 2.5 °C | ≥ 20 µM | ≥ 20 µM
O=c1c(CN(CCCn2ccnc2)Cc2ccncc2)coc2cc(O)ccc12 [Example 16, 7-hydroxy-3-({[3-(1H-imidazol-1-yl)propyl](pyridin-4-ylmethyl)amino}methyl)-4H-chromen-4-one] | > 2.5 °C | 10 to 20 µM | ≥ 20 µM
CN1CCN(c2ccc3c(=O)c(CN(CCCn4ccnc4)Cc4ccncc4)coc3c2)CC1 [Example 12, 3-({[3-(1H-imidazol-1-yl)propyl](pyridin-4-ylmethyl)amino}methyl)-7-(4-methylpiper-azin-1-yl)-4H-chromen-4-one] | > 2.5 °C | ≤ 10 µM | 10 to 20 µM
COc1cccc(-c2ccc3c(=O)c(CN(CCCn4ccnc4)Cc4ccncc4)coc3c2)c1 [Example 40, 3-({[3-(1H-imidazol-1-yl)propyl][(pyridin-4-yl)methyl]amino}methyl)-7-(3-methoxyphenyl)-4H-chromen-4-one] | > 2.5 °C | ≤ 10 µM | ≤ 10 µM
Cc1ccc2c(=O)c(CN(CCCn3ccnc3)Cc3ccnc(F)c3)coc2c1C [Example 26, 3-({[(2-fluoropyridin-4-yl)methyl][3-(1H-imidazol-1-yl)propyl]amino}methyl)-7,8-dimethyl-4H-chromen-4-one] | < 2.5 °C | ≥ 20 µM | ≥ 20 µM
COc1ccccc1-c1ccc2c(=O)c(CN(CCCn3ccnc3)Cc3ccncc3)coc2c1 [Example 39, 3-({[3-(1H-imidazol-1-yl)propyl][(pyridin-4-yl)methyl]amino}methyl)-7-(2-methoxyphenyl)-4H-chromen-4-one] | > 2.5 °C | ≤ 10 µM | 10 to 20 µM
O=c1c(CN(CCCn2ccnc2)Cc2ccncc2)coc2ccccc12 [Example 33, 3-({[3-(1H-imidazol-1-yl)propyl](pyridin-4-ylmethyl)amino}methyl)-4H-chromen-4-one] | < 2.5 °C | 10 to 20 µM | ≥ 20 µM
O=C1CCCN1CCCN(Cc1ccncc1)Cc1coc2ccccc2c1=O [Example 8, 1-(3-{[(4-oxo-4H-chromen-3-yl)methyl](pyridin-4-ylmethyl)amino}propyl)pyrrolidin-2-one] | < 2.5 °C | ≥ 20 µM | ≥ 20 µM
O=c1c(CN(CCCn2ccnc2)Cc2ccncc2)cnc2ccccn12 [Example 35, 3-({[3-(1H-imidazol-1-yl)propyl][(pyridin-4-yl)methyl]amino}methyl)-4H-pyrido[1,2-a]pyrimidin-4-one] | – | ≥ 20 µM | ≥ 20 µM
N#Cc1ccc2c(=O)c(CN(CCCn3ccnc3)Cc3ccncc3)coc2c1 [Example 24, 3-({[3-(1H-imidazol-1-yl)propyl][(pyridin-4-yl)methyl]amino}methyl)-4-oxo-4H-chromene-7-carbonitrile] | – | ≥ 20 µM | ≥ 20 µM

Next, values leading:

ΔTm at 50 µM (human STING) | EC50 [1] | EC50 [2] | SMILES
> 2.5 °C | ≤ 10 µM | 10 to 20 µM | COc1cc(CN(CCCc2cccnc2)Cc2cn(C3CC3)c3cc(F)c(F)cc3c2=O)ccn1 [Example 95, 1-cyclopropyl-6,7-difluoro-3-({[(2-methoxypyridin-4-yl)methyl][3-(pyridin-3-yl)propyl]amino}methyl)-1,4-dihydroquinolin-4-one]
> 2.5 °C | 10 to 20 µM | ≤ 10 µM | Cc1oc2cc(Br)c(F)cc2c(=O)c1CN(CCCn1cnc2cncnc21)Cc1ccncc1 [Example 73, 7-bromo-6-fluoro-2-methyl-3-({[3-(9H-purin-9-yl)propyl][(pyridin-4-yl)methyl]amino}methyl)-4H-chromen-4-one]
> 2.5 °C | ≥ 20 µM | 10 to 20 µM | Cc1ccc2c(=O)c(CN(CCCn3cnc4c(N)ncnc43)Cc3ccncc3)c(C)oc2c1C [Example 81, 3-({[3-(6-amino-9H-purin-9-yl)propyl][(pyridin-4-yl)methyl]amino}methyl)-2,7,8-trimethyl-4H-chromen-4-one]
> 2.5 °C | ≤ 10 µM | ≤ 10 µM | COc1cc2ncn(CCCN(Cc3ccncc3)Cc3coc4c(ccc5ccccc54)c3=O)c2cc1OC [Example 76, 3-({[3-(5,6-dimethoxy-1H-1,3-benzodiazol-1-yl)propyl](pyridin-4-ylmethyl)amino}methyl)-4H-benzo[h]chromen-4-one]
< 2.5 °C | ≥ 20 µM | ≥ 20 µM | O=c1c(CN(CCCn2ccnc2)Cc2ccncc2)c[nH]c2ccccc12 [Example 74, 3-({[3-(1H-imidazol-1-yl)propyl][(pyridin-4-yl)methyl]amino}methyl)-1,4-dihydroquinolin-4-one]
> 2.5 °C | ≥ 20 µM | ≥ 20 µM | COc1cc(CN(CCCc2cc[nH]c(=O)c2)Cc2coc3c(ccc4ccccc43)c2=O)ccn1 [Example 93, 4-(3-{[(2-methoxypyridin-4-yl)methyl]({4-oxo-4H-benzo[h]chromen-3-yl}methyl)amino}propyl)-1,2-dihydropyridin-2-one]
> 2.5 °C | ≤ 10 µM | 10 to 20 µM | Cc1ccc2c(=O)c(CN(CCCn3cnc4c(=O)[nH]cnc43)Cc3ccncc3)c(C)oc2c1C [Example 75, 9-(3-{[(pyridin-4-yl)methyl][(2,7,8-trimethyl-4-oxo-4H-chromen-3-yl)methyl]amino}propyl)-6,9-dihydro-1H-purin-6-one]
> 2.5 °C | ≤ 10 µM | ≤ 10 µM | COc1cc(CN(CCCn2cnc3cncnc32)Cc2c(C)oc3cc(Br)c(F)cc3c2=O)ccn1 [Example 78, 7-bromo-6-fluoro-3-({[(2-methoxypyridin-4-yl)methyl][3-(9H-purin-9-yl)propyl]amino}methyl)-2-methyl-4H-chromen-4-one]
< 2.5 °C | ≥ 20 µM | ≥ 20 µM | COc1cc(CN(CCCc2ccnnc2)Cc2cn(C)c3ccccc3c2=O)ccn1 [Example 102, 3-({[(2-methoxypyridin-4-yl)methyl][3-(pyridazin-4-yl)propyl]amino}methyl)-1-methyl-1,4-dihydroquinolin-4-one]
– | ≥ 20 µM | ≥ 20 µM | COc1cc(CN(CCCn2cnc3ccccc32)Cc2c(C)oc3c(ccc4ccccc43)c2=O)ccn1 [Example 87, 3-({[3-(1H-1,3-benzodiazol-1-yl)propyl][(2-methoxypyridin-4-yl)methyl]amino}methyl)-2-methyl-4H-benzo[h]chromen-4-one]
– | ≥ 20 µM | ≥ 20 µM | COc1cc(CN(CCCn2cnc3ccccc32)Cc2cnc3ccccn3c2=O)ccn1 [Example 86, 3-({[3-(1H-1,3-benzodiazol-1-yl)propyl][(2-methoxypyridin-4-yl)methyl]amino}methyl)-4H-pyrido[1,2-a]pyrimidin-4-one]
– | ≥ 20 µM | ≥ 20 µM | COc1cc(CN(CCCc2cncc3[nH]ncc23)Cc2c(C)oc3cc(Br)c(F)cc3c2=O)ccn1 [Example 92, 7-bromo-6-fluoro-3-({[(2-methoxypyridin-4-yl)methyl](3-{1H-pyrazolo[3,4-c]pyridin-4-yl}propyl)amino}methyl)-2-methyl-4H-chromen-4-one]
